The source of these data is PubChem BioAssay AID179 (DTP/NCI, 2004).

pEC50, pIC50: −log10 of the molar value. Active and inactive are the calls of the source.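 Rule for the calls: active = compounds giving half or more protection of infected cells from virus-caused growth loss, again on retest; inactive = the rest.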

The test system of the experiment is CEM cells HIV-1 protection, formazan growth assay. Kind of experiment: NCI AIDS Antiviral Assay. To be noted: for pIC50: measured here: growth of uninfected CEM cells. In a few lines:
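Screen of anti-HIV-1 activity in human CEM cells using a formazan-based growth measurement at five drug concentrations. Hits with 50% or greater protection were repeated, and confirmation required reproducible complete protection.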

In the case of `COC(=O)C1(Cc2ccccc2)Cc2cc3c(cc2C1)CCC3`, the pEC50 is less than 3.70 and the pIC50 was 4.22.

As for `CN(C)c1ccc(SSc2ccc(N(C)C)cc2)cc1`, the pEC50 is less than 3.70 and the pIC50 was 4.85. In the case of `COC(=O)c1cc([O-])c2sc(C)c(C)[n+]2n1`, the pEC50 was less than 2.98 and the pIC50 was 3.14. On the same counts, the results for `CCCCN(CCCC)C(=S)S` are less than 3.70 and less than 3.70. On the same counts, the results for `COc1ccc(CCNC(=S)/N=C\C2=C(O)c3ccccc3C2=O)cc1OC` are less than 3.70 and less than 3.70. On to `CCCCCCCCOC1C(O)C(O)C(O)C(O)C12CO2` (stereo not given), for which the pEC50 was less than 3.70 and the pIC50 was 4.12.

`Cc1cc(=O)oc2cc(O)c(O)cc12`: the pEC50 is less than 3.70 and the pIC50 is 4.56. For `O=C1c2ccccc2C(=O)c2c(O)ccc(O)c21`, in that order: less than 4.11 and less than 4.11.

`COc1ccc(N=Nc2c(-c3ccccc3)nn(C(=O)CC(=O)Nc3cccc(Cl)c3)c2-c2ccccc2)cc1`: the pEC50 was less than 4.74 and the pIC50 was less than 4.74.

Consider `COC(=O)C1=C(C(=O)OC)C2(C)CCC(=O)C1O2` (stereo not given), for which the pEC50 is less than 3.70 and the pIC50 is less than 3.70. For the compound `O=C(O)c1cc2ccc(O)c(O)c2cn1`, the pEC50 was less than 4.25 and the negative logarithm of the IC50 (pIC50) is 5.69.

Regarding `C/C=C(/CCCCOC1CCCCO1)[Si](C)(C)C` (stereo not given), the outcome was inactive. On to `O=c1nc(NC2CCCCO2)ccn1CCO` (stereo not given), for which the pEC50 is less than 2.98 and the pIC50 was less than 2.98.

As to `N#Cc1c(N2CCCC2)nsc1Nc1ccc(F)cc1`, the pEC50 is less than 3.70 and the pIC50 was less than 3.70. With `O=Cc1ccc2c(c1)C(O)NC(=O)O2` (stereo not given), the pEC50 was 4.55 and the pIC50 is 4.14. For `O=C(c1cccc(O)c(=O)c1)C1OC1c1ccccc1` (stereo not given), in that order: less than 3.84 and 5.55. For `FC(F)(F)c1cc(C2SCc3nc4ccccc4n32)cc(C(F)(F)F)c1` (stereo not given), in that order: less than 4.38 and 5.15.

As to `CC1(C)CNC[C@@](C)(O)C(=O)NC(C)(C)CNC[C@](C)(O)C(=O)N1`, the pEC50 was 3.73 and the pIC50 is less than 3.70. As to `COC(=O)C(Cc1ccccc1)NP(=O)(O)OCC1OC(n2ccc(N)nc2=O)C(O)C1O` (stereo not given), the pEC50 was less than 3.70 and the pIC50 was 5.37.

Consider `CCOC(=O)C1=NN(c2ccccc2)C(=O)/C1=C\N1CC(=O)NC1=S`, for which the pEC50 was less than 3.70 and the negative logarithm of the IC50 (pIC50) is less than 4.00. On the same counts, the results for `O=C(O)/C=C/C=C/C(=O)O` are less than 3.70 and less than 3.70. On the same counts, the results for `CC(=O)C(=Cc1cccc(C#N)c1)C(C)=O` are less than 4.20 and 4.46. On the same counts, the results for `CC#N.CC#N.COC(=O)[C@@H]1CCC(=O)[N-]1.COC(=O)[C@@H]1CCC(=O)[N-]1.COC(=O)[C@@H]1CCC(=O)[N-]1.COC(=O)[C@@H]1CCC(=O)[N-]1.[Rh+2].[Rh+2]` are less than 3.70 and less than 3.70. Regarding `O=C1CCC(c2ccccc2)=NN1c1nsc2ccccc12`, the pEC50 was less than 4.07 and the pIC50 was less than 4.07. Turning to `COc1ccccc1/C=C/C(=O)c1ccccc1`, the pEC50 is less than 4.24 and the negative logarithm of the IC50 (pIC50) is 4.95. On the same counts, the results for `CC1=CC=NN2C(=O)[C@H](C)C2C1` (stereo not given in full) are less than 2.82 and less than 2.82.

With `Cc1c2ccccc2nc(CSc2nc3ccccc3s2)[n+]1[O-]`, the pEC50 is 4.19 and the negative logarithm of the IC50 (pIC50) was less than 3.70. On the same counts, the results for `Cc1ccccc1-n1c(=S)[nH]c2c(sc(=O)n2-c2ccccc2C)c1=O` are less than 5.42 and less than 5.42. On the same counts, the results for `CC1CCC2(OC2(C)C)C(=O)C1` (stereo not given) are less than 3.70 and less than 3.70. On the same counts, the results for `N#CC12C(=N)CCC1C1CC2C2C3C=CC(C3)C12` (stereo not given) are less than 3.70 and less than 3.70. For `COc1cc(CCC(=O)CC(=O)CCc2ccc(O)c(OC)c2)ccc1O`, the pEC50 is less than 3.70 and the negative logarithm of the IC50 (pIC50) is 4.46.

In the case of `O=c1/c(=C/c2ccccc2O)sc2nc3ccccc3n12`, the pEC50 is less than 4.75 and the pIC50 was less than 4.75. As for `O=NNc1cnccn1`, the pEC50 is less than 2.77 and the pIC50 is less than 2.77. As to `Cc1cc(=O)[nH]c(=S)n1-c1nc2ccccc2o1`, the pEC50 is less than 3.94 and the pIC50 is less than 3.94. On to `COc1nc(=O)cc(N)n1C1OC(CO)C(O)C1O` (stereo not given), for which the pEC50 is less than 3.04 and the negative-log IC50 (pIC50) is less than 3.04.

Take `CC1=CC(=O)N2[C@H](OC[C@@H]2C(C)C)O1`: the pEC50 was less than 2.90 and the pIC50 was less than 2.90. As to `Cc1cccc(NP2(=O)NCCCN2)c1`, the pEC50 was 3.50 and the pIC50 is 3.40.

As to `O=C(CC1Sc2ccccc2NC1=O)Nc1ccc(Cl)cc1` (stereo not given), the pEC50 is less than 3.97 and the pIC50 is less than 3.97. In the case of `CCN1CCC(O)(/C=C/c2ccc(C(C)C)cc2)C(C(=O)/C=C/c2ccc(C(C)C)cc2)C1` (stereo not given), the pEC50 is less than 3.70 and the pIC50 is 5.75. On the same counts, the results for `COP(=O)(O)C(N)Cc1c[nH]c2ccccc12` (stereo not given) are less than 3.70 and less than 3.70. With `Cc1c2ccccc2c(CSC(=N)N)c2ccccc12`, the pEC50 is less than 3.70 and the pIC50 was 6.95. On the same counts, the results for `O=C(NCCCN(CCCCN(CCCNC(=O)C(F)(F)F)CCCc1ccccc1)CCCc1ccccc1)C(F)(F)F` are less than 3.70 and 5.01. Regarding `CCCCN(CCCC)C(=O)C(=O)CC(=O)c1ccc(Br)cc1`, the result was inactive. As for `CC(=O)CC1(C)OC(N)=C(C#N)C1(C#N)C#N` (stereo not given), the pEC50 is less than 3.70 and the pIC50 is 3.79. In the case of `C[C@]12CCCO[C@@H]1CC[C@@H]1[C@@H]2CC[C@]2(C)[C@@H](O)CC[C@@H]12`, the pEC50 was less than 3.70 and the pIC50 is less than 3.70. Regarding `NC(=O)CNC(=O)CCCCC1CCSS1` (stereo not given), the pEC50 was 4.29 and the pIC50 is less than 3.70. On the same counts, the results for `O=S(=O)(O)CCCCCO` are less than 3.70 and less than 3.70.

Take `CCCSS/C(CCO)=C(\C)N(C=O)Cc1cnc(C)nc1N`: the pEC50 is less than 3.70 and the pIC50 is 4.98. For `Cc1ccc(S(=O)(=O)Nn2c(S)c(C#N)c(-c3ccc(N(C)C)cc3)c(C#N)c2=O)cc1`, in that order: less than 3.70 and 5.11. For `COc1cccc(NC(=O)CC(=O)NN)c1`, in that order: less than 3.70 and less than 3.70. Consider `Nc1ccc2n[se]nc2c1`, for which the outcome was inactive. Turning to `CC(/C=N\NC(=S)N1CCCCC1)=N/NC(=S)N1CCCCC1`, the pEC50 was less than 3.70 and the pIC50 was 5.75. As to `Nc1nc(NCC2(CO)CCC2)cc(=O)[nH]1`, the pEC50 is less than 3.70 and the pIC50 was less than 3.70. Turning to `CC[C@@H]1CC[C@@H]2[C@H](CC[C@]3(C)[C@@H](O[N+](=O)[O-])CC[C@@H]23)[C@H]1C(C)=O`, the result was inactive.

In the case of `O=c1[nH][nH]c(=O)n1Cc1ccccc1`, the pEC50 was less than 3.70 and the negative-log IC50 (pIC50) was less than 3.70. For `COc1cccc(/C=N/[N-]C(=O)c2ccncc2)c1[O-].COc1cccc(/C=N/[N-]C(=O)c2ccncc2)c1[O-].[O]=[U](=[O])([OH2+])[OH2+]`, the pEC50 is less than 3.67 and the pIC50 is 5.31. On the same counts, the results for `CCc1cc(-c2cccc3ccccc23)c(C#N)c(=S)[nH]1` are less than 3.70 and 4.49. Consider `Cc1c(C#N)c(=O)[nH]c(=O)n1CCN1CCN(C(=O)NCCCCCCNC(=O)N2CCN(CCn3c(C)c(C#N)c(=O)[nH]c3=O)CC2)CC1`, for which the result was inactive. `O=S1OC2(c3ccccc3-c3ccccc32)c2ccccc21` (stereo not given): the outcome was inactive. Turning to `COc1cc(CC(=O)O)c(C(=O)c2cccc([N+](=O)[O-])c2)cc1OC`, the pEC50 is less than 3.70 and the negative-log IC50 (pIC50) is 4.43. For `N#C/C(=C\c1ccc([N+](=O)[O-])cc1)c1ccccc1`, in that order: less than 4.96 and less than 4.96. For `O=S(=O)(CC#CCO)c1ccccc1`, the outcome was inactive. Take `CC(NNC(=O)c1ccncc1)c1ccccc1` (stereo not given): the pEC50 is less than 3.70 and the pIC50 is 4.12. In the case of `COc1c(OC)c(C=O)c2c(OC)c(-c3c(C)cc4c(C(C)C)c(OC)c(OC)c(C=O)c4c3OC)c(C)cc2c1C(C)C`, the result was inactive. With `Cc1ccc(C2=Nn3c(nc4sc(-c5ccccc5)cc4c3=O)SC2)cc1`, the pEC50 is less than 4.00 and the pIC50 is less than 4.00. `COC1C(O)CC(OC2CC(Oc3cc4cc5c(c(O)c4c(O)c3C)C(=O)[C@@H](OC3CC(OC4CC(OC6CC(C)(O)C(OC(C)=O)C(C)O6)C(O)C(C)O4)C(O)C(C)O3)[C@H]([C@H](OC)C(=O)[C@@H](O)[C@@H](C)O)C5)OC(C)C2OC(C)=O)OC1C` (stereo not given in full): the pEC50 was less than 5.21 and the pIC50 was 8.71. `COc1ccc(C2Oc3c(c(O)cc4c3[C@H](c3ccc(O)cc3O)[C@H](O)C(c3ccc(O)c(O)c3)O4)C[C@@H]2O)cc1O` (stereo not given in full): the result was inactive. With `Cn1cc(NC(=O)c2cc(NC(=O)c3cc(NC(=O)c4ccc(C(=O)Nc5cn(C)c(C(=O)Nc6cn(C)c(C(=O)Nc7cn(C)c(C(=O)NCCC(=N)N)n7)n6)n5)cc4)cn3C)cn2C)cc1C(=O)NCCC(=N)N`, the pEC50 is less than 4.48 and the pIC50 is 5.18. For `O=C(O)CCCc1ccc(N(CCCl)OCCCl)cc1`, in that order: less than 3.70 and 4.66. On to `COC(=O)[C@H]1CO[C@@H](C(C)(C)C)N1C(=O)N1C=CC(=O)C[C@@H]1C`, for which the pEC50 was less than 3.70 and the pIC50 was less than 3.70.

As to `CCOP(=O)(OCC)C(C)(CC)NC` (stereo not given), the pEC50 was less than 3.70 and the pIC50 is less than 3.70. Regarding `COC(=O)c1ccccc1COC(=O)c1cc(C(=CCC[C@H]2CC[C@@]3(C)[C@@H](CC[C@@H]4[C@@H]3CC[C@]3(C)[C@@H](C(C)CCCC(C)C)CC[C@@H]43)C2)c2cc(Cl)c(OCc3ccccc3C(=O)OC)c(C(=O)OCc3ccccc3C(=O)OC)c2)cc(Cl)c1OCc1ccccc1C(=O)OC` (stereo not given in full), the pEC50 is less than 3.70 and the pIC50 is less than 3.70.

For orientation: pEC50 means −log10 of the EC50, conventionally taken in molar units. As a reminder, the pIC50 is the IC50 on a negative log10 scale, so that one unit is a factor of ten. Higher therefore signals a low IC50.
